Experimental data from paper PMC9865188 (Pharmaceutics, 2023).
Where two headings read alike, the source gives them in different places. Each block holds one compound with its values, some of them ahead of it.

Assays:
Caco-2 cells [1] = system: Caco-2 cells
MDCKII-MDR1 cells = experiment: Monolayer integrity: lucifer yellow permeability, MDCKII-MDR1 (series 2); details: MDCKII-MDR1, series 2, 100 µM lucifer yellow
Description: For (2) and (3), passive permeability was assessed by supplementation of 100 µM lucifer yellow to all donor solutions.
Papp was calculated by dividing the flux with the measured donor concentration.

Caco-2 cells [2] = system: Caco-2 cells; remark: listed apart in the source
[3] = cited from earlier work

3H-mannitol permeability (Caco-2 cells [1]): 0.31–1.4 × 10^−6 cm/s
Compound: OC[C@@H](O)[C@@H](O)[C@H](O)[C@H](O)CO [^3H-mannitol]

Compound: lucifer yellow
Lucifer yellow permeability (MDCKII-MDR1 cells): 0.39–1.2 × 10^−6 cm/s | Lucifer yellow permeability (Caco-2 cells [2]): 0.15–1.1 × 10^−6 cm/s

Compound: polysorbate 20
critical micelle concentration (CMC) ([3]; in water, temperatures of 22–40 °C): 11 to 57 µM | critical micelle concentration (CMC) ([3]; room temperature): 11 to 42 µM
